Literature values in patent US20250312313A1, “PHARMACEUTICAL COMPOSITION FOR SUBLINGUAL ADMINISTRATION OF CLONIDINE” (NOVUMGEN LIMITED, priority 2022, published 2025).

Conditions: oral

- absorption from the gastrointestinal tract: almost completely absorbed
SMILES: Clc1cccc(Cl)c1N=C1NCCN1 [Clonidine]
